Among the test systems are DU-145; HCC 2998; HCT-15; Hs-578T; IGROV-1; K562; MCF7; NCI-H226; NCI-H23; NCI-H522; OVCAR-3; SF-295; SK-MEL-5; SK-OV-3; SNB-19; SR; SW-620; T47D; UACC-257; RXF 393.
What all share (test): NCI anticancer screen, dose series, 48 h

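In this assay, cells in 96-well plates receive the compound at five concentrations for 48 hours. Endpoints are linearly interpolated between the surrounding concentrations. GI50: concentration for 50% inhibition of growth.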 Calls of active or inactive are those of the source. Rule as the data show it: active = GI50 up to about 1.1 µM and inactive = higher.

The record followed here is ChEMBL document CHEMBL1201862, “PubChem BioAssay data set” (2004).

Regarding `C=C1CC(CN2CCC(=O)NC2=O)(c2ccccc2)OC1=O` (configuration not stated), the GI50 with DU-145 is 15.9 µM (inactive); with HCC 2998, 15 µM (inactive); in the assay with HCT-15, 4.98 µM; in the assay with Hs-578T, 16.1 µM (inactive); with IGROV-1, 7.87 µM (inactive); with K562, 2.39 µM (inactive). Further, the GI50 with MCF7 is 1.64 µM (inactive); in the assay with NCI-H226, 15.6 µM (inactive); with NCI-H23, 7.18 µM (inactive); in the assay with NCI-H522, 0.859 µM (active); in the assay with OVCAR-3 it was 13 µM (inactive); with SF-295, 20.7 µM (inactive). In addition, the GI50 in the assay with SK-MEL-5 was 12.4 µM (inactive); in the assay with SK-OV-3, 16.5 µM (inactive); in the assay on SNB-19 it was > 41.4 µM (inactive); in the assay with SR, 2.09 µM (inactive); in the assay with SW-620 it was 1.94 µM (inactive); with T47D, 3.13 µM (inactive). Besides, the GI50 in the assay with UACC-257 was 8.99 µM (inactive).
As for `NCCc1ccc(S(=O)(=O)O)cc1[N+](=O)[O-]`, the GI50 is > 100 µM (inactive) in the assay on DU-145; over 100 µM in the assay on HCT-15; > 100 µM (inactive) with Hs-578T; > 100 µM (inactive) in the assay on IGROV-1; > 100 µM (inactive) in the assay on MCF7; > 100 µM (inactive) in the assay on NCI-H226. Further, the GI50 in the assay on NCI-H23, with NCI-H522, in the assay with OVCAR-3, in the assay with RXF 393, in the assay on SF-295 and with SK-MEL-5 was > 100 µM (inactive) in each case. For the same compound, the GI50 in the assay with SK-OV-3 was > 100 µM (inactive); in the assay with SNB-19 it was > 100 µM (inactive); in the assay with SR, 4.71 µM (inactive); in the assay on SW-620 it was > 100 µM (inactive); in the assay with T47D, > 100 µM (inactive); with UACC-257, > 100 µM (inactive).
Regarding `CCCc1cn2c(/C=N/NC(=N)N)c(-c3ccc(Cl)c([N+](=O)[O-])c3)nc2s1`, the GI50 is 1.77 µM (inactive) in the assay on DU-145; 1.7 µM in the assay on HCT-15; 2.01 µM (inactive) in the assay on Hs-578T; 1.89 µM (inactive) in the assay with IGROV-1; 1.37 µM (inactive) in the assay with K562; 1.94 µM (inactive) in the assay with MCF7. Also, the GI50 in the assay with NCI-H226 is 1.99 µM (inactive); with NCI-H23, 1.74 µM (inactive); with NCI-H522 it was 1.98 µM (inactive); in the assay with OVCAR-3, 1.55 µM (inactive); with RXF 393, 1.68 µM (inactive); in the assay on SF-295, 1.66 µM (inactive). Also, the GI50 in the assay on SK-MEL-5 is 1.67 µM (inactive); with SK-OV-3, 1.5 µM (inactive); in the assay on SNB-19, 1.5 µM (inactive); with SR, 1.25 µM (inactive); in the assay with SW-620 it was 1.07 µM (active); in the assay on T47D, 1.42 µM (inactive). For the same compound, the GI50 with UACC-257 is 1.61 µM (inactive).
In the case of `O=[N+]([O-])C(C(Cl)=C(Cl)Cl)=C(N1CCCCC1)N1CCCCC1`, the GI50 is > 100 µM (inactive) in the assay with DU-145; > 100 µM (inactive) in the assay on HCC 2998; over 100 µM in the assay on HCT-15; 13.8 µM (inactive) in the assay on Hs-578T; 69.5 µM (inactive) with IGROV-1; 90.2 µM (inactive) in the assay with K562. Also, the GI50 in the assay on MCF7 was 90.4 µM (inactive); in the assay with NCI-H226, > 100 µM (inactive); in the assay with NCI-H23 it was > 100 µM (inactive); in the assay on OVCAR-3 it was 62.2 µM (inactive); with RXF 393, 63.1 µM (inactive); in the assay on SF-295, > 100 µM (inactive). Moreover, the GI50 is > 100 µM (inactive) in the assay with SK-MEL-5; > 100 µM (inactive) in the assay on SK-OV-3; 1.95 µM (inactive) in the assay on SNB-19; 33.8 µM (inactive) in the assay on SR; > 100 µM (inactive) with SW-620; 45.6 µM (inactive) in the assay on T47D. Besides, the GI50 in the assay with UACC-257 was 63.4 µM (inactive).
In the case of `O=C(Nc1nnc(-c2ccccc2)o1)C(SC(=S)N1CCCC1)c1ccccc1` (configuration not stated), the GI50 in the assay on DU-145 is 30.6 µM (inactive); in the assay with HCT-15 it was 6.9 µM; in the assay with Hs-578T, 87.9 µM (inactive); with IGROV-1 it was 22.9 µM (inactive); with K562, 24.4 µM (inactive); in the assay with MCF7, 31.3 µM (inactive). The GI50 with NCI-H226 is 32.1 µM (inactive); in the assay with NCI-H23, 24.3 µM (inactive); with NCI-H522, 22.3 µM (inactive); with OVCAR-3, 23.5 µM (inactive); in the assay with RXF 393, 40.3 µM (inactive); in the assay on SF-295, 22.9 µM (inactive). Further, the GI50 was 17.8 µM (inactive) with SK-MEL-5; 36.8 µM (inactive) in the assay with SK-OV-3; 38.5 µM (inactive) in the assay on SNB-19; 20.1 µM (inactive) in the assay on SR; 49.1 µM (inactive) in the assay with SW-620; 46.8 µM (inactive) in the assay on T47D. Besides, the GI50 with UACC-257 was 37 µM (inactive).
For the compound `Oc1cc(-c2cccc(Cl)c2)nc2cc3c(cc12)OCO3`, the GI50 was 0.284 µM (active) in the assay with DU-145; 1.31 µM (inactive) in the assay with HCC 2998; 0.269 µM in the assay on HCT-15; 0.255 µM (active) with Hs-578T; 0.151 µM (active) in the assay with IGROV-1; 2.83 µM (inactive) in the assay on MCF7. For the same compound, the GI50 in the assay on NCI-H23 is 0.951 µM (active); with NCI-H522 it was 0.334 µM (active); in the assay with SK-MEL-5, 0.13 µM (active); in the assay on SK-OV-3, 0.326 µM (active); in the assay with SNB-19, 0.726 µM (active); with SR it was 0.342 µM (active). The GI50 in the assay on SW-620 was 0.351 µM (active); in the assay on T47D, 10.6 µM (inactive); with UACC-257, 0.366 µM (active).
As to `CC(Br)CN(CC(C)Br)c1ccc2c(c1)Cc1ccccc1-2` (configuration not stated), the GI50 in the assay on DU-145 was 11.1 µM (inactive); in the assay with HCT-15 it was 13.1 µM; with Hs-578T it was 13.4 µM (inactive); in the assay with IGROV-1 it was 6.93 µM (inactive); in the assay on K562 it was 5.92 µM (inactive); in the assay on MCF7, 6.49 µM (inactive). Also, the GI50 with NCI-H23 was 12 µM (inactive); in the assay on NCI-H522, 6.9 µM (inactive); with OVCAR-3 it was 11.7 µM (inactive); in the assay with RXF 393 it was 14.3 µM (inactive); in the assay on SF-295, 10.7 µM (inactive); in the assay on SK-MEL-5, 12.7 µM (inactive). The GI50 with SK-OV-3 was 16 µM (inactive); in the assay on SNB-19, 13.6 µM (inactive); in the assay on SR, 1.76 µM (inactive); in the assay on SW-620, 14.2 µM (inactive); with T47D it was 10.1 µM (inactive); with UACC-257, 14.1 µM (inactive).
Take `Nc1c(C(=O)O)nnc2cc(Cl)ccc12`: the GI50 was > 100 µM (inactive) with DU-145; > 100 µM (inactive) with HCC 2998; over 100 µM in the assay on HCT-15; > 100 µM (inactive) in the assay with Hs-578T; > 100 µM (inactive) in the assay with IGROV-1; > 100 µM (inactive) with K562. Further, the GI50 in the assay with MCF7, in the assay on NCI-H226, with NCI-H23, in the assay on NCI-H522, in the assay with OVCAR-3 and with SF-295 was > 100 µM (inactive) in each case. The GI50 with SK-MEL-5, with SK-OV-3, with SNB-19, in the assay with SR, in the assay with SW-620 and in the assay on T47D was > 100 µM (inactive) throughout. Also, the GI50 with UACC-257 is > 100 µM (inactive).
`Brc1cc2nn(-c3ccccc3)nc2c2nonc12`: the GI50 in the assay with DU-145 was > 100 µM (inactive); in the assay with HCC 2998, > 100 µM (inactive); with HCT-15, over 100 µM; in the assay with Hs-578T it was > 100 µM (inactive); with IGROV-1, > 100 µM (inactive); in the assay with K562, > 100 µM (inactive). For the same compound, the GI50 with MCF7, in the assay with NCI-H226, in the assay on NCI-H23, in the assay with NCI-H522, in the assay with OVCAR-3 and in the assay on SF-295 was > 100 µM (inactive) in each case. Also, the GI50 in the assay on SK-MEL-5 is > 100 µM (inactive); in the assay on SK-OV-3 it was > 100 µM (inactive); in the assay on SNB-19 it was > 100 µM (inactive); in the assay on SR it was > 100 µM (inactive); in the assay on SW-620 it was > 100 µM (inactive); in the assay with T47D, 28.4 µM (inactive). Further, the GI50 in the assay on UACC-257 was > 100 µM (inactive).
Turning to `CC[C@]12C=CCN3CCC4(c5cc([C@@]6(C(=O)OC)CC7CN(CCc8c6[nH]c6ccccc86)C[C@@H]6CCCC[C@H]76)c(OC)cc5N(C)C4[C@](O)(C(=O)OC)C1OC(C)=O)[C@@H]32` (some centres not stated), the GI50 was < 0.01 µM (active) in the assay on DU-145; < 0.01 µM (active) in the assay on HCC 2998; under 0.01 µM in the assay on HCT-15; < 0.01 µM (active) in the assay with Hs-578T; < 0.01 µM (active) in the assay with IGROV-1; < 0.01 µM (active) in the assay with MCF7. Besides, the GI50 with NCI-H226, in the assay with NCI-H23, with NCI-H522, in the assay with OVCAR-3, with RXF 393 and in the assay with SF-295 was < 0.01 µM (active) each time. The GI50 with SK-MEL-5 was < 0.01 µM (active); in the assay on SK-OV-3 it was < 0.01 µM (active); in the assay with SNB-19, < 0.01 µM (active); in the assay with SR, < 0.01 µM (active); with SW-620, < 0.01 µM (active); in the assay with T47D, 18.2 µM (inactive).
On to `O=C(N/C(=C/c1ccc(Cl)cc1Cl)c1nc2ccccc2s1)c1ccccc1`, for which the GI50 was 16.2 µM (inactive) in the assay on DU-145; 4.37 µM with HCT-15; 12.1 µM (inactive) in the assay with Hs-578T; 11.1 µM (inactive) with IGROV-1; 18.5 µM (inactive) in the assay on K562; 16.2 µM (inactive) in the assay on MCF7. In addition, the GI50 in the assay with NCI-H226 is 13.6 µM (inactive); with NCI-H23, 11.8 µM (inactive); in the assay with NCI-H522, 8.34 µM (inactive); with OVCAR-3 it was 7.78 µM (inactive); in the assay on RXF 393, 31 µM (inactive); in the assay on SF-295 it was 12.7 µM (inactive). The GI50 is 13.5 µM (inactive) in the assay on SK-MEL-5; 24.3 µM (inactive) in the assay with SK-OV-3; 19.5 µM (inactive) in the assay with SNB-19; 9.27 µM (inactive) in the assay on SR; 10.7 µM (inactive) in the assay with SW-620; 13.4 µM (inactive) in the assay with T47D. The GI50 in the assay with UACC-257 is 13.4 µM (inactive).
